From ChEMBL document CHEMBL1201862, “PubChem BioAssay data set” (2004)
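Where inhibition never reached the appropriate level, the endpoint shown equals the highest concentration tested. Otherwise, values were interpolated linearly from a five-concentration, 48-hour dose response in 96-well plates. At the GI50, growth is halved.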 Active and inactive are the calls of the source. Cut-off read from the data, not from the text of the source: active = GI50 up to about 1.1 µM and inactive = higher.

What was measured:
Experiment in all cases: NCI-60 cell line screen, 48 h
OVCAR-5 = test system: OVCAR-5
HCT-116 = test system: HCT-116
NCI-H522 = test system: NCI-H522
KM-20L2 = test system: KM-20L2
ACHN = test system: ACHN
MOLT-4 = test system: MOLT-4
HL-60 = test system: HL-60
M14 = test system: M14
KM12 = test system: KM12
UACC-257 = test system: UACC-257
RXF 393 = test system: RXF 393
UACC-62 = test system: UACC-62
DMS-114 = test system: DMS-114
SF-295 = test system: SF-295
NCI-H23 = test system: NCI-H23
TK-10 = test system: TK-10
DMS-273 = test system: DMS-273
SNB-78 = test system: SNB-78
U-251 = test system: U-251
HT-29 = test system: HT-29
EKVX = test system: EKVX
IGROV-1 = test system: IGROV-1
SNB-19 = test system: SNB-19
CCRF-CEM = test system: CCRF-CEM
M19-MEL = test system: M19-MEL
SK-OV-3 = test system: SK-OV-3
K562 = test system: K562
NCI-H460 = test system: NCI-H460
HOP-62 = test system: HOP-62
SR = test system: SR
HOP-92 = test system: HOP-92
OVCAR-8 = test system: OVCAR-8
A498 = test system: A498
SK-MEL-28 = test system: SK-MEL-28
UO-31 = test system: UO-31
HOP-18 = test system: HOP-18
SNB-75 = test system: SNB-75
786-0 = test system: 786-0
CAKI-1 = test system: CAKI-1
SF-539 = test system: SF-539
SW-620 = test system: SW-620
SN12C = test system: SN12C
RPMI-8226 = test system: RPMI-8226
NCI-H226 = test system: NCI-H226
Malme-3M = test system: Malme-3M
LOX IMVI = test system: LOX IMVI
A549 = test system: A549
LXFL 529 = test system: LXFL 529
SK-MEL-2 = test system: SK-MEL-2
OVCAR-4 = test system: OVCAR-4
DLD-1 = test system: DLD-1
SF-268 = test system: SF-268
OVCAR-3 = test system: OVCAR-3
COLO 205 = test system: COLO 205
SK-MEL-5 = test system: SK-MEL-5
HCT-15 = test system: HCT-15

`CCCC(=O)OC1C(C2COC(C)(C)O2)OC2OC(C)(C)OC21` (stereo unspecified) was tested, and the GI50 (OVCAR-5) was > 100 µM (inactive), the GI50 (HCT-116) was > 100 µM (inactive) and the GI50 (NCI-H522) was > 100 µM (inactive). The GI50 (KM-20L2) was > 100 µM (inactive), the GI50 (ACHN) was > 100 µM (inactive) and the GI50 (MOLT-4) was > 100 µM (inactive). For the same compound, the GI50 (HL-60) was > 100 µM (inactive), the GI50 (M14) was > 100 µM (inactive) and the GI50 (KM12) was > 100 µM (inactive). For the same compound, the GI50 (UACC-257) was > 100 µM (inactive), the GI50 (RXF 393) was > 100 µM (inactive) and the GI50 (UACC-62) was > 100 µM (inactive). The GI50 (DMS-114) was > 100 µM (inactive), the GI50 (SF-295) was > 100 µM (inactive) and the GI50 (NCI-H23) was > 100 µM (inactive). For the same compound, the GI50 (TK-10) was > 100 µM (inactive), the GI50 (DMS-273) was > 100 µM (inactive) and the GI50 (SNB-78) was > 100 µM (inactive). The GI50 (U-251) was > 100 µM (inactive), the GI50 (HT-29) was > 100 µM (inactive) and the GI50 (EKVX) was > 100 µM (inactive). For the same compound, the GI50 (IGROV-1) was > 100 µM (inactive), the GI50 (SNB-19) was > 100 µM (inactive) and the GI50 (CCRF-CEM) was > 100 µM (inactive). For the same compound, the GI50 (M19-MEL) was > 100 µM (inactive), the GI50 (SK-OV-3) was > 100 µM (inactive) and the GI50 (K562) was > 100 µM (inactive). The GI50 (NCI-H460) was > 100 µM (inactive), the GI50 (HOP-62) was > 100 µM (inactive) and the GI50 (SR) was > 100 µM (inactive). The GI50 (HOP-92) was > 100 µM (inactive), the GI50 (OVCAR-8) was > 100 µM (inactive) and the GI50 (A498) was > 100 µM (inactive). For the same compound, the GI50 (SK-MEL-28) was > 100 µM (inactive) and the GI50 (UO-31) was > 100 µM (inactive).

With `Cc1cc(O)nc(NNC(C#N)c2ccc(O)cc2)n1` (stereo unspecified) the GI50 (OVCAR-5) was > 100 µM (inactive), the GI50 (HCT-116) was > 100 µM (inactive) and the GI50 (HOP-18) was > 100 µM (inactive). For the same compound, the GI50 (SNB-75) was > 100 µM (inactive), the GI50 (NCI-H522) was > 100 µM (inactive) and the GI50 (KM-20L2) was > 100 µM (inactive). The GI50 (ACHN) was > 100 µM (inactive), the GI50 (MOLT-4) was > 100 µM (inactive) and the GI50 (HL-60) was > 100 µM (inactive). For the same compound, the GI50 (M14) was > 100 µM (inactive), the GI50 (786-0) was > 100 µM (inactive) and the GI50 (CAKI-1) was > 100 µM (inactive). For the same compound, the GI50 (KM12) was > 100 µM (inactive), the GI50 (UACC-257) was > 100 µM (inactive) and the GI50 (RXF 393) was > 100 µM (inactive). The GI50 (UACC-62) was > 100 µM (inactive), the GI50 (DMS-114) was > 100 µM (inactive) and the GI50 (SF-539) was > 100 µM (inactive). The GI50 (SW-620) was > 100 µM (inactive), the GI50 (SF-295) was > 100 µM (inactive) and the GI50 (SN12C) was > 100 µM (inactive). For the same compound, the GI50 (NCI-H23) was > 100 µM (inactive), the GI50 (TK-10) was > 100 µM (inactive) and the GI50 (DMS-273) was > 100 µM (inactive). The GI50 (SNB-78) was 83.8 µM (inactive), the GI50 (U-251) was > 100 µM (inactive) and the GI50 (HT-29) was > 100 µM (inactive). For the same compound, the GI50 (RPMI-8226) was > 100 µM (inactive), the GI50 (NCI-H226) was > 100 µM (inactive) and the GI50 (Malme-3M) was > 100 µM (inactive). For the same compound, the GI50 (IGROV-1) was > 100 µM (inactive), the GI50 (LOX IMVI) was > 100 µM (inactive) and the GI50 (CCRF-CEM) was > 100 µM (inactive). For the same compound, the GI50 (A549) was > 100 µM (inactive), the GI50 (LXFL 529) was > 100 µM (inactive) and the GI50 (SK-MEL-2) was > 100 µM (inactive). The GI50 (OVCAR-4) was > 100 µM (inactive), the GI50 (M19-MEL) was > 100 µM (inactive) and the GI50 (SK-OV-3) was > 100 µM (inactive). The GI50 (K562) was > 100 µM (inactive), the GI50 (NCI-H460) was > 100 µM (inactive) and the GI50 (DLD-1) was > 100 µM (inactive). The GI50 (SF-268) was > 100 µM (inactive), the GI50 (OVCAR-3) was > 100 µM (inactive) and the GI50 (HOP-62) was > 100 µM (inactive). The GI50 (SR) was > 100 µM (inactive), the GI50 (HOP-92) was > 100 µM (inactive) and the GI50 (OVCAR-8) was > 100 µM (inactive). For the same compound, the GI50 (COLO 205) was > 100 µM (inactive), the GI50 (SK-MEL-28) was > 100 µM (inactive) and the GI50 (SK-MEL-5) was > 100 µM (inactive). For the same compound, the GI50 (HCT-15) was > 100 µM and the GI50 (UO-31) was > 100 µM (inactive).

For `COC1OC(C)C(O)CC1OS(=O)(=O)c1ccc(C)cc1` (stereo unspecified), the GI50 (OVCAR-5) was > 100 µM (inactive), the GI50 (HCT-116) was > 100 µM (inactive) and the GI50 (HOP-18) was > 100 µM (inactive). The GI50 (SNB-75) was 37.9 µM (inactive), the GI50 (NCI-H522) was > 100 µM (inactive) and the GI50 (KM-20L2) was > 100 µM (inactive). For the same compound, the GI50 (ACHN) was > 100 µM (inactive), the GI50 (MOLT-4) was > 100 µM (inactive) and the GI50 (HL-60) was > 100 µM (inactive). The GI50 (M14) was > 100 µM (inactive), the GI50 (786-0) was > 100 µM (inactive) and the GI50 (CAKI-1) was > 100 µM (inactive). The GI50 (KM12) was > 100 µM (inactive), the GI50 (UACC-257) was > 100 µM (inactive) and the GI50 (RXF 393) was > 100 µM (inactive). For the same compound, the GI50 (UACC-62) was > 100 µM (inactive), the GI50 (DMS-114) was > 100 µM (inactive) and the GI50 (SF-539) was > 100 µM (inactive). The GI50 (SW-620) was > 100 µM (inactive), the GI50 (SF-295) was > 100 µM (inactive) and the GI50 (SN12C) was > 100 µM (inactive). The GI50 (NCI-H23) was > 100 µM (inactive), the GI50 (TK-10) was > 100 µM (inactive) and the GI50 (DMS-273) was > 100 µM (inactive). The GI50 (SNB-78) was > 100 µM (inactive), the GI50 (U-251) was > 100 µM (inactive) and the GI50 (HT-29) was > 100 µM (inactive). The GI50 (RPMI-8226) was > 100 µM (inactive), the GI50 (EKVX) was > 100 µM (inactive) and the GI50 (NCI-H226) was > 100 µM (inactive). The GI50 (Malme-3M) was > 100 µM (inactive), the GI50 (IGROV-1) was > 100 µM (inactive) and the GI50 (LOX IMVI) was > 100 µM (inactive). The GI50 (SNB-19) was > 100 µM (inactive), the GI50 (CCRF-CEM) was > 100 µM (inactive) and the GI50 (A549) was > 100 µM (inactive). The GI50 (LXFL 529) was > 100 µM (inactive), the GI50 (SK-MEL-2) was > 100 µM (inactive) and the GI50 (OVCAR-4) was > 100 µM (inactive). The GI50 (M19-MEL) was > 100 µM (inactive), the GI50 (SK-OV-3) was > 100 µM (inactive) and the GI50 (K562) was > 100 µM (inactive). The GI50 (NCI-H460) was > 100 µM (inactive), the GI50 (SF-268) was > 100 µM (inactive) and the GI50 (OVCAR-3) was > 100 µM (inactive). For the same compound, the GI50 (HOP-92) was > 100 µM (inactive), the GI50 (OVCAR-8) was > 100 µM (inactive) and the GI50 (COLO 205) was > 100 µM (inactive). For the same compound, the GI50 (A498) was > 100 µM (inactive), the GI50 (SK-MEL-28) was > 100 µM (inactive) and the GI50 (SK-MEL-5) was > 100 µM (inactive). The GI50 (HCT-15) was > 100 µM and the GI50 (UO-31) was > 100 µM (inactive).
